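Each compound was tested at five concentrations against cells in 96-well plates for 48 hours. GI50: concentration for 50% inhibition of growth. TGI: total growth inhibition.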
How the values were obtained:
Test in all cases: NCI anticancer screen, dose series, 48 h
A549 NSCLC = system: A549 NSCLC
COLO 205 colon = system: COLO 205 colon
DU-145 prostate = system: DU-145 prostate
HCT-116 colon = system: HCT-116 colon
HL-60(TB) leukemia = system: HL-60(TB) leukemia
HOP-62 NSCLC = system: HOP-62 NSCLC
MCF7 breast = system: MCF7 breast
OVCAR-5 ovarian = system: OVCAR-5 ovarian
SK-MEL-5 melanoma = system: SK-MEL-5 melanoma
SK-OV-3 ovarian = system: SK-OV-3 ovarian

COc1ccc2c(c1O)[C@@]13CCCC=C1[C@@H](C2)N(C)CC3
TGI (A549 NSCLC): > 100 µM
TGI (COLO 205 colon): > 100 µM
TGI (DU-145 prostate): > 100 µM
TGI (HCT-116 colon): > 100 µM
TGI (HL-60(TB) leukemia): > 100 µM
TGI (HOP-62 NSCLC): > 100 µM
TGI (MCF7 breast): > 100 µM
TGI (OVCAR-5 ovarian): > 100 µM
TGI (SK-MEL-5 melanoma): > 100 µM
TGI (SK-OV-3 ovarian): > 100 µM

COc1cc(C(=O)/C=C/c2c[nH]c3ccccc23)cc(OC)c1OC
GI50 (A549 NSCLC): 0.0339 µM
TGI (A549 NSCLC): 24.2 µM
GI50 (COLO 205 colon): 0.0192 µM
TGI (COLO 205 colon): 0.132 µM
GI50 (DU-145 prostate): 0.0296 µM
TGI (DU-145 prostate): 30 µM
GI50 (HCT-116 colon): < 0.0175 µM
TGI (HCT-116 colon): 16.9 µM
GI50 (HL-60(TB) leukemia): < 0.0145 µM
TGI (HL-60(TB) leukemia): 0.0422 µM
GI50 (HOP-62 NSCLC): 0.0212 µM
TGI (HOP-62 NSCLC): 29 µM
GI50 (MCF7 breast): 0.0857 µM
TGI (MCF7 breast): 15 µM
GI50 (OVCAR-5 ovarian): 0.0728 µM
TGI (OVCAR-5 ovarian): > 100 µM
GI50 (SK-MEL-5 melanoma): < 0.0173 µM
TGI (SK-MEL-5 melanoma): 0.775 µM
GI50 (SK-OV-3 ovarian): 0.0438 µM
TGI (SK-OV-3 ovarian): 31.1 µM

OC[C@H]1C[C@](O)(c2ccccc2Cl)[C@@H](c2ccccc2Cl)O1
GI50 (A549 NSCLC): 22.9 µM
TGI (A549 NSCLC): 58.1 µM
GI50 (COLO 205 colon): 14.7 µM
TGI (COLO 205 colon): 34.6 µM
GI50 (DU-145 prostate): 27.1 µM
TGI (DU-145 prostate): 74.3 µM
GI50 (HCT-116 colon): 25.7 µM
TGI (HCT-116 colon): 68.6 µM
GI50 (HL-60(TB) leukemia): 16.5 µM
TGI (HL-60(TB) leukemia): 38.7 µM
GI50 (HOP-62 NSCLC): 31.7 µM
TGI (HOP-62 NSCLC): > 100 µM
GI50 (MCF7 breast): 27 µM
TGI (MCF7 breast): 62.6 µM
GI50 (OVCAR-5 ovarian): 23 µM
TGI (OVCAR-5 ovarian): 70.8 µM
GI50 (SK-MEL-5 melanoma): 17.1 µM
TGI (SK-MEL-5 melanoma): 31.6 µM
GI50 (SK-OV-3 ovarian): 23.6 µM
TGI (SK-OV-3 ovarian): 84.4 µM

O=C(O)CN(CCN(CC(=O)O)CC(=O)O)CC(=O)O.[Cu+2].[Na+]
GI50 (A549 NSCLC): > 100 µM
TGI (A549 NSCLC): > 100 µM
GI50 (COLO 205 colon): > 100 µM
TGI (COLO 205 colon): > 100 µM
GI50 (DU-145 prostate): > 100 µM
TGI (DU-145 prostate): > 100 µM
GI50 (HCT-116 colon): > 100 µM
TGI (HCT-116 colon): > 100 µM
GI50 (HL-60(TB) leukemia): > 100 µM
TGI (HL-60(TB) leukemia): > 100 µM
GI50 (HOP-62 NSCLC): 26.2 µM
TGI (HOP-62 NSCLC): 79.5 µM
GI50 (MCF7 breast): > 100 µM
TGI (MCF7 breast): > 100 µM
GI50 (OVCAR-5 ovarian): > 100 µM
TGI (OVCAR-5 ovarian): > 100 µM
GI50 (SK-MEL-5 melanoma): > 100 µM
TGI (SK-MEL-5 melanoma): > 100 µM
GI50 (SK-OV-3 ovarian): 23.5 µM
TGI (SK-OV-3 ovarian): 65.2 µM

N#Cc1ccc2c(-c3ccnc(NC4CC4)n3)c(-c3ccc(F)cc3)nn2c1
GI50 (A549 NSCLC): > 25 µM
TGI (A549 NSCLC): > 25 µM
GI50 (COLO 205 colon): > 25 µM
TGI (COLO 205 colon): > 25 µM
GI50 (DU-145 prostate): > 25 µM
TGI (DU-145 prostate): > 25 µM
GI50 (HCT-116 colon): > 25 µM
TGI (HCT-116 colon): > 25 µM
GI50 (HL-60(TB) leukemia): > 25 µM
TGI (HL-60(TB) leukemia): > 25 µM
GI50 (HOP-62 NSCLC): > 25 µM
TGI (HOP-62 NSCLC): > 25 µM
GI50 (MCF7 breast): > 25 µM
TGI (MCF7 breast): > 25 µM
GI50 (OVCAR-5 ovarian): > 25 µM
TGI (OVCAR-5 ovarian): > 25 µM
GI50 (SK-MEL-5 melanoma): > 25 µM
TGI (SK-MEL-5 melanoma): > 25 µM
GI50 (SK-OV-3 ovarian): 22.4 µM
TGI (SK-OV-3 ovarian): > 25 µM

CCOC(=O)c1c(CN2CCCCC2)nc2ccc(Cl)cc2c1-c1ccccc1
GI50 (A549 NSCLC): 29.6 µM
TGI (A549 NSCLC): > 100 µM
GI50 (COLO 205 colon): 22.9 µM
TGI (COLO 205 colon): 58.3 µM
GI50 (DU-145 prostate): 32.5 µM
TGI (DU-145 prostate): > 100 µM
GI50 (HCT-116 colon): 15.6 µM
TGI (HCT-116 colon): 37 µM
GI50 (HL-60(TB) leukemia): 18.1 µM
TGI (HL-60(TB) leukemia): 43.4 µM
GI50 (HOP-62 NSCLC): 23.9 µM
TGI (HOP-62 NSCLC): 56.5 µM
GI50 (MCF7 breast): 18.6 µM
TGI (MCF7 breast): 41.2 µM
GI50 (OVCAR-5 ovarian): 17.6 µM
TGI (OVCAR-5 ovarian): 36.6 µM
GI50 (SK-MEL-5 melanoma): 17.4 µM
TGI (SK-MEL-5 melanoma): 32.8 µM
GI50 (SK-OV-3 ovarian): 23.1 µM
TGI (SK-OV-3 ovarian): 49 µM

COc1ccccc1NC(=O)c1sc2ncn(CCOc3ccccc3)c(=O)c2c1C
GI50 (A549 NSCLC): 3.36 µM
TGI (A549 NSCLC): > 50 µM
GI50 (COLO 205 colon): 2.88 µM
TGI (COLO 205 colon): > 50 µM
GI50 (DU-145 prostate): > 50 µM
TGI (DU-145 prostate): > 50 µM
GI50 (HCT-116 colon): 1.99 µM
TGI (HCT-116 colon): > 50 µM
GI50 (HL-60(TB) leukemia): 1.93 µM
TGI (HL-60(TB) leukemia): > 50 µM
GI50 (HOP-62 NSCLC): 15.6 µM
TGI (HOP-62 NSCLC): > 50 µM
GI50 (MCF7 breast): 3.55 µM
TGI (MCF7 breast): > 50 µM
GI50 (OVCAR-5 ovarian): 39.2 µM
TGI (OVCAR-5 ovarian): > 50 µM
GI50 (SK-MEL-5 melanoma): 1.15 µM
TGI (SK-MEL-5 melanoma): 4.2 µM
GI50 (SK-OV-3 ovarian): > 50 µM
TGI (SK-OV-3 ovarian): > 50 µM
